From patent US12552783B2, “Modulators of proteolysis and associated methods of use” (Arvinas Operations, Inc., priority 2018, dated 2026)

Molecular target: KRas (Homo sapiens, UniProt P01116, G12C)
Assay: KRas degradation in NCI-H2030 cells by Western blot, normalized to GAPDH (data of Table 14)
Assay type: cell-based
Set-up: host or cells: NCI-H2030
Conditions: for Dmax: NCI-H2030; for Percent Degradation at Indicated Concentration (μM): H2030
How it was run: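 Degradation of endogenous homozygous G12C KRas is measured by immunoblot after serum starvation and compound exposure at three final concentrations (0.3, 1 and 3 μM). VHL-recruiting compounds are incubated 24 h and all others 72 h. Percent loss is calculated from GAPDH-normalized KRas relative to vehicle.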

| Compound | Percent Degradation at Indicated Concentration (μM): 0.3 (H2030 cells, 0.3 μM) | Percent Degradation at Indicated Concentration (μM): 1 (H2030 cells, 1 μM) | Percent Degradation at Indicated Concentration (μM): 3 (H2030 cells, 3 μM) | Dmax (H2030 cells) [%] | Percent Degradation at Indicated Concentration (μM) (0.3 μM) | Percent Degradation at Indicated Concentration (μM) (1 μM) | Percent Degradation at Indicated Concentration (μM) (3 μM) | Dmax [%] |
| --- | --- | --- | --- | --- | --- | --- | --- | --- |
| C=CC(=O)N1CCN(c2nc(NCCC(=O)N(C)CCOCCOCCOCC(=O)N[C@H](C(=O)N3C[C@H](O)C[C@H]3C(=O)N[C@@H](C)c3ccc(-c4scnc4C)cc3)C(C)(C)C)nc3c(F)c(-c4cc(O)cc5ccccc45)c(Cl)cc23)CC1 [compound 193, (2S,4R)-1-((2S)-18-((4-(4-acryloylpiperazin-1-yl)-6-chloro-8-fluoro-7-(3-hydroxynaphthalen-1-yl)quinazolin-2-yl)amino)-2-(tert-butyl)-15-methyl-4,16-dioxo-6,9,12-trioxa-3,15-diazaoctadecanoyl)-4-hydroxy-N-((S)-1-(4-(4-methylthiazol-5-yl)phenyl)ethyl)pyrrolidine-2-carboxamide] | C (C ≤ 35) | C (C ≤ 35) | C (C ≤ 35) | ≤ 35 |  |  |  |  |
| C=CC(=O)N1CCN(c2nc(NCCC(=O)N(C)CCOCCOCCOCCOCC(=O)N[C@H](C(=O)N3C[C@@H](O)C[C@H]3C(=O)N[C@@H](C)c3ccc(-c4scnc4C)cc3)C(C)(C)C)nc3c(F)c(-c4cc(O)cc5ccccc45)c(Cl)cc23)CC1 [compound 199, (2S,4S)-1-((2S)-21-((4-(4-acryloylpiperazin-1-yl)-6-chloro-8-fluoro-7-(3-hydroxynaphthalen-1-yl)quinazolin-2-yl)amino)-2-(tert-butyl)-18-methyl-4,19-dioxo-6,9,12,15-tetraoxa-3,18-diazahenicosanoyl)-4-hydroxy-N-((S)-1-(4-(4-methylthiazol-5-yl)phenyl)ethyl)pyrrolidine-2-carboxamide] |  |  |  |  | C (Percent Degradation: C ≤ 35) | C (Percent Degradation: C ≤ 35) | C (Percent Degradation: C ≤ 35) | ≤ 35 |
| CC(=O)N1CCN(c2nc(NCCC(=O)N(C)CCOCCOCCOCC(=O)N[C@H](C(=O)N3C[C@H](O)C[C@H]3C(=O)N[C@@H](C)c3ccc(-c4scnc4C)cc3)C(C)(C)C)nc3c(F)c(-c4cc(O)cc5ccccc45)c(Cl)cc23)CC1 [compound 202, (2S,4R)-1-((2S)-18-((4-(4-acetylpiperazin-1-yl)-6-chloro-8-fluoro-7-(3-hydroxynaphthalen-1-yl)quinazolin-2-yl)amino)-2-(tert-butyl)-15-methyl-4,16-dioxo-6,9,12-trioxa-3,15-diazaoctadecanoyl)-4-hydroxy-N-((S)-1-(4-(4-methylthiazol-5-yl)phenyl)ethyl)pyrrolidine-2-carboxamide] |  |  |  |  | C (Percent Degradation: C ≤ 35) | C (Percent Degradation: C ≤ 35) | C (Percent Degradation: C ≤ 35) | ≤ 35 |
| CC(=O)N1CCN(c2nc(NCCC(=O)N(C)CCOCCOCCOCCOCCOCC(=O)N[C@H](C(=O)N3C[C@H](O)C[C@H]3C(=O)N[C@@H](C)c3ccc(-c4scnc4C)cc3)C(C)(C)C)nc3c(F)c(-c4cc(O)cc5ccccc45)c(Cl)cc23)CC1 [compound 204, (2S,4R)-1-((2S)-24-((4-(4-acetylpiperazin-1-yl)-6-chloro-8-fluoro-7-(3-hydroxynaphthalen-1-yl)quinazolin-2-yl)amino)-2-(tert-butyl)-21-methyl-4,22-dioxo-6,9,12,15,18-pentaoxa-3,21-diazatetracosanoyl)-4-hydroxy-N-((S)-1-(4-(4-methylthiazol-5-yl)phenyl)ethyl)pyrrolidine-2-carboxamide] |  |  |  |  | C (Percent Degradation: C ≤ 35) | C (Percent Degradation: C ≤ 35) | C (Percent Degradation: C ≤ 35) | ≤ 35 |
| C=CC(=O)N1CCN(c2nc(NCCC(=O)N(C)CCOCCOCCOCCOCCOCC(=O)N[C@H](C(=O)N3C[C@H](O)C[C@H]3C(=O)N[C@@H](C)c3ccc(-c4scnc4C)cc3)C(C)(C)C)nc3c(F)c(-c4c(O)cccc4F)c(Cl)cc23)CC1 [compound 214, (2S,4R)-1-((S)-24-(((R)-4-(4-acryloylpiperazin-1-yl)-6-chloro-8-fluoro-7-(2-fluoro-6-hydroxyphenyl)quinazolin-2-yl)amino)-2-(tert-butyl)-21-methyl-4,22-dioxo-6,9,12,15,18-pentaoxa-3,21-diazatetracosanoyl)-4-hydroxy-N-((S)-1-(4-(4-methylthiazol-5-yl)phenyl)ethyl)pyrrolidine-2-carboxamide] |  |  |  |  | C (Percent Degradation: C ≤ 35) | C (Percent Degradation: C ≤ 35) | C (Percent Degradation: C ≤ 35) | ≤ 35 |

The remaining lines, values ahead:

| Percent Degradation at Indicated Concentration (μM): 0.3 (H2030 cells, 0.3 μM) | Percent Degradation at Indicated Concentration (μM): 1 (H2030 cells, 1 μM) | Percent Degradation at Indicated Concentration (μM): 3 (H2030 cells, 3 μM) | Dmax (H2030 cells) [%] | Percent Degradation at Indicated Concentration (μM) (0.3 μM) | Percent Degradation at Indicated Concentration (μM) (1 μM) | Percent Degradation at Indicated Concentration (μM) (3 μM) | Dmax [%] | Compound |
| --- | --- | --- | --- | --- | --- | --- | --- | --- |
| C (C ≤ 35) | C (C ≤ 35) | C (C ≤ 35) | ≤ 35 |  |  |  |  | C=CC(=O)N1CCN(c2nc(NCCC(=O)N(C)CCOCCOCCOCCOCC(=O)N[C@H](C(=O)N3C[C@H](O)C[C@H]3C(=O)N[C@@H](C)c3ccc(-c4scnc4C)cc3)C(C)(C)C)nc3c(F)c(-c4cc(O)cc5ccccc45)c(Cl)cc23)CC1 [compound 194, (2S,4R)-1-((2S)-21-((4-(4-acryloylpiperazin-1-yl)-6-chloro-8-fluoro-7-(3-hydroxynaphthalen-1-yl)quinazolin-2-yl)amino)-2-(tert-butyl)-18-methyl-4,19-dioxo-6,9,12,15-tetraoxa-3,18-diazahenicosanoyl)-4-hydroxy-N-((S)-1-(4-(4-methylthiazol-5-yl)phenyl)ethyl)pyrrolidine-2-carboxamide] |
| C (C ≤ 35) | C (C ≤ 35) | C (C ≤ 35) | ≤ 35 |  |  |  |  | C=CC(=O)N1CCN(c2nc(NCCC(=O)N(C)CCOCCOCCOCCOCCOCC(=O)N[C@H](C(=O)N3C[C@H](O)C[C@H]3C(=O)N[C@@H](C)c3ccc(-c4scnc4C)cc3)C(C)(C)C)nc3c(F)c(-c4cc(O)cc5ccccc45)c(Cl)cc23)CC1 [compound 197, (2S,4R)-1-((2S)-24-((4-(4-acryloylpiperazin-1-yl)-6-chloro-8-fluoro-7-(3-hydroxynaphthalen-1-yl)quinazolin-2-yl)amino)-2-(tert-butyl)-21-methyl-4,22-dioxo-6,9,12,15,18-pentaoxa-3,21-diazatetracosanoyl)-4-hydroxy-N-((S)-1-(4-(4-methylthiazol-5-yl)phenyl)ethyl)pyrrolidine-2-carboxamide] |
|  |  |  |  | C (Percent Degradation: C ≤ 35) | C (Percent Degradation: C ≤ 35) | C (Percent Degradation: C ≤ 35) | ≤ 35 | C=CC(=O)N1CCN(c2nc(NCCC(=O)N(C)CCOCCOCCOCCOCCOCCOCCOCCOCCOCCOCC(=O)N[C@H](C(=O)N3C[C@H](O)C[C@H]3C(=O)N[C@@H](C)c3ccc(-c4scnc4C)cc3)C(C)(C)C)nc3c(F)c(-c4cc(O)cc5ccccc45)c(Cl)cc23)CC1 [compound 198, (2S,4R)-1-((2S)-39-((4-(4-acryloylpiperazin-1-yl)-6-chloro-8-fluoro-7-(3-hydroxynaphthalen-1-yl)quinazolin-2-yl)amino)-2-(tert-butyl)-36-methyl-4,37-dioxo-6,9,12,15,18,21,24,27,30,33-decaoxa-3,36-diazanonatriacontanoyl)-4-hydroxy-N-((S)-1-(4-(4-methylthiazol-5-yl)phenyl)ethyl)pyrrolidine-2-carboxamide] |
|  |  |  |  | C (Percent Degradation: C ≤ 35) | C (Percent Degradation: C ≤ 35) | C (Percent Degradation: C ≤ 35) | ≤ 35 | CC(=O)N1CCN(c2nc(NCCC(=O)N(C)CCOCC(=O)N[C@H](C(=O)N3C[C@H](O)C[C@H]3C(=O)N[C@@H](C)c3ccc(-c4scnc4C)cc3)C(C)(C)C)nc3c(F)c(-c4cc(O)cc5ccccc45)c(Cl)cc23)CC1 [compound 200, (2S,4R)-1-((2S)-2-(2-(2-(3-((4-(4-acetylpiperazin-1-yl)-6-chloro-8-fluoro-7-(3-hydroxynaphthalen-1-yl)quinazolin-2-yl)amino)-N-methylpropanamido)ethoxy)acetamido)-3,3-dimethylbutanoyl)-4-hydroxy-N-((S)-1-(4-(4-methylthiazol-5-yl)phenyl)ethyl)pyrrolidine-2-carboxamide] |
|  |  |  |  | C (Percent Degradation: C ≤ 35) | C (Percent Degradation: C ≤ 35) | C (Percent Degradation: C ≤ 35) | ≤ 35 | CC(=O)N1CCN(c2nc(NCCC(=O)N(C)CCOCCOCC(=O)N[C@H](C(=O)N3C[C@H](O)C[C@H]3C(=O)N[C@@H](C)c3ccc(-c4scnc4C)cc3)C(C)(C)C)nc3c(F)c(-c4cc(O)cc5ccccc45)c(Cl)cc23)CC1 [compound 201, (2S,4R)-1-((2S)-15-((4-(4-acetylpiperazin-1-yl)-6-chloro-8-fluoro-7-(3-hydroxynaphthalen-1-yl)quinazolin-2-yl)amino)-2-(tert-butyl)-12-methyl-4,13-dioxo-6,9-dioxa-3,12-diazapentadecanoyl)-4-hydroxy-N-((S)-1-(4-(4-methylthiazol-5-yl)phenyl)ethyl)pyrrolidine-2-carboxamide] |
